Results reported in the NIST ThermoML archive (doi:10.1021/acs.jced.5b00051).
Numbers after ± are expanded uncertainties.

Assay: molar heat capacity at constant pressure
Details: 101.33 kPa, Liquid, Large sample (1 g) DSC

SMILES: CCCOCCO [2-propoxyethanol]
- molar heat capacity at constant pressure (275.15 K): 231.6 ± 3.6 J/K/mol
- molar heat capacity at constant pressure (277.15 K): 232.4 ± 3.6 J/K/mol
- molar heat capacity at constant pressure (279.15 K): 233.3 ± 3.6 J/K/mol
- molar heat capacity at constant pressure (281.15 K): 234.1 ± 3.6 J/K/mol
- molar heat capacity at constant pressure (283.15 K): 235 ± 3.6 J/K/mol
- molar heat capacity at constant pressure (285.15 K): 235.8 ± 3.7 J/K/mol
- molar heat capacity at constant pressure (287.15 K): 236.6 ± 3.7 J/K/mol
- molar heat capacity at constant pressure (289.15 K): 237.5 ± 3.7 J/K/mol
- molar heat capacity at constant pressure (291.15 K): 238.3 ± 3.7 J/K/mol
- molar heat capacity at constant pressure (293.15 K): 239.2 ± 3.7 J/K/mol
- molar heat capacity at constant pressure (295.15 K): 240.1 ± 3.7 J/K/mol
- molar heat capacity at constant pressure (297.15 K): 240.9 ± 3.7 J/K/mol
- molar heat capacity at constant pressure (298.15 K): 241.4 ± 3.7 J/K/mol
- molar heat capacity at constant pressure (299.15 K): 241.8 ± 3.7 J/K/mol
- molar heat capacity at constant pressure (301.15 K): 242.7 ± 3.8 J/K/mol
- molar heat capacity at constant pressure (303.15 K): 243.5 ± 3.8 J/K/mol
- molar heat capacity at constant pressure (305.15 K): 244.4 ± 3.8 J/K/mol
- molar heat capacity at constant pressure (307.15 K): 245.3 ± 3.8 J/K/mol
- molar heat capacity at constant pressure (309.15 K): 246.2 ± 3.8 J/K/mol
- molar heat capacity at constant pressure (311.15 K): 247.1 ± 3.8 J/K/mol
- molar heat capacity at constant pressure (313.15 K): 248 ± 3.8 J/K/mol
- molar heat capacity at constant pressure (315.15 K): 248.9 ± 3.9 J/K/mol
- molar heat capacity at constant pressure (317.15 K): 249.8 ± 3.9 J/K/mol
- molar heat capacity at constant pressure (319.15 K): 250.7 ± 3.9 J/K/mol
- molar heat capacity at constant pressure (321.15 K): 251.6 ± 3.9 J/K/mol
- molar heat capacity at constant pressure (323.15 K): 252.5 ± 3.9 J/K/mol
- molar heat capacity at constant pressure (325.15 K): 253.4 ± 3.9 J/K/mol
- molar heat capacity at constant pressure (327.15 K): 254.3 ± 3.9 J/K/mol
- molar heat capacity at constant pressure (329.15 K): 255.2 ± 4 J/K/mol
- molar heat capacity at constant pressure (331.15 K): 256.1 ± 4 J/K/mol
- molar heat capacity at constant pressure (333.15 K): 257.1 ± 4 J/K/mol
- molar heat capacity at constant pressure (335.15 K): 258 ± 4 J/K/mol
- molar heat capacity at constant pressure (337.15 K): 258.9 ± 4 J/K/mol
- molar heat capacity at constant pressure (339.15 K): 259.9 ± 4 J/K/mol

SMILES: CCOCCOCCO [3,6-dioxa-1-octanol]
- molar heat capacity at constant pressure (275.15 K): 296.5 ± 4.6 J/K/mol
- molar heat capacity at constant pressure (277.15 K): 296.8 ± 4.6 J/K/mol
- molar heat capacity at constant pressure (279.15 K): 297.2 ± 4.6 J/K/mol
- molar heat capacity at constant pressure (281.15 K): 297.6 ± 4.6 J/K/mol
- molar heat capacity at constant pressure (283.15 K): 298 ± 4.6 J/K/mol
- molar heat capacity at constant pressure (285.15 K): 298.5 ± 4.6 J/K/mol
- molar heat capacity at constant pressure (287.15 K): 298.9 ± 4.6 J/K/mol
- molar heat capacity at constant pressure (289.15 K): 299.4 ± 4.6 J/K/mol
- molar heat capacity at constant pressure (291.15 K): 299.9 ± 4.6 J/K/mol
- molar heat capacity at constant pressure (293.15 K): 300.4 ± 4.7 J/K/mol
- molar heat capacity at constant pressure (295.15 K): 300.9 ± 4.7 J/K/mol
- molar heat capacity at constant pressure (297.15 K): 301.4 ± 4.7 J/K/mol
- molar heat capacity at constant pressure (298.15 K): 301.7 ± 4.7 J/K/mol
- molar heat capacity at constant pressure (299.15 K): 301.9 ± 4.7 J/K/mol
- molar heat capacity at constant pressure (301.15 K): 302.5 ± 4.7 J/K/mol
- molar heat capacity at constant pressure (303.15 K): 303.1 ± 4.7 J/K/mol
- molar heat capacity at constant pressure (305.15 K): 303.7 ± 4.7 J/K/mol
- molar heat capacity at constant pressure (307.15 K): 304.3 ± 4.7 J/K/mol
- molar heat capacity at constant pressure (309.15 K): 304.9 ± 4.7 J/K/mol
- molar heat capacity at constant pressure (311.15 K): 305.5 ± 4.7 J/K/mol
- molar heat capacity at constant pressure (313.15 K): 306.2 ± 4.7 J/K/mol
- molar heat capacity at constant pressure (315.15 K): 306.9 ± 4.8 J/K/mol
- molar heat capacity at constant pressure (317.15 K): 307.5 ± 4.8 J/K/mol
- molar heat capacity at constant pressure (319.15 K): 308.2 ± 4.8 J/K/mol
- molar heat capacity at constant pressure (321.15 K): 309 ± 4.8 J/K/mol
- molar heat capacity at constant pressure (323.15 K): 309.7 ± 4.8 J/K/mol
- molar heat capacity at constant pressure (325.15 K): 310.4 ± 4.8 J/K/mol
- molar heat capacity at constant pressure (327.15 K): 311.2 ± 4.8 J/K/mol
- molar heat capacity at constant pressure (329.15 K): 312 ± 4.8 J/K/mol
- molar heat capacity at constant pressure (331.15 K): 312.8 ± 4.8 J/K/mol
- molar heat capacity at constant pressure (333.15 K): 313.6 ± 4.9 J/K/mol
- molar heat capacity at constant pressure (335.15 K): 314.4 ± 4.9 J/K/mol
- molar heat capacity at constant pressure (337.15 K): 315.2 ± 4.9 J/K/mol
- molar heat capacity at constant pressure (339.15 K): 316.1 ± 4.9 J/K/mol

SMILES: COCCOCCOCCOCCO [3,6,9,12-tetraoxatridecanol]
- molar heat capacity at constant pressure (275.15 K): 445.4 ± 6.9 J/K/mol
- molar heat capacity at constant pressure (277.15 K): 445.6 ± 6.9 J/K/mol
- molar heat capacity at constant pressure (279.15 K): 445.8 ± 6.9 J/K/mol
- molar heat capacity at constant pressure (281.15 K): 446 ± 6.9 J/K/mol
- molar heat capacity at constant pressure (283.15 K): 446.2 ± 6.9 J/K/mol
- molar heat capacity at constant pressure (285.15 K): 446.5 ± 6.9 J/K/mol
- molar heat capacity at constant pressure (287.15 K): 446.8 ± 6.9 J/K/mol
- molar heat capacity at constant pressure (289.15 K): 447.1 ± 6.9 J/K/mol
- molar heat capacity at constant pressure (291.15 K): 447.4 ± 6.9 J/K/mol
- molar heat capacity at constant pressure (293.15 K): 447.7 ± 6.9 J/K/mol
- molar heat capacity at constant pressure (295.15 K): 448.1 ± 6.9 J/K/mol
- molar heat capacity at constant pressure (297.15 K): 448.4 ± 6.9 J/K/mol
- molar heat capacity at constant pressure (298.15 K): 448.6 ± 6.9 J/K/mol
- molar heat capacity at constant pressure (299.15 K): 448.8 ± 7 J/K/mol
- molar heat capacity at constant pressure (301.15 K): 449.2 ± 7 J/K/mol
- molar heat capacity at constant pressure (303.15 K): 449.6 ± 7 J/K/mol
- molar heat capacity at constant pressure (305.15 K): 450 ± 7 J/K/mol
- molar heat capacity at constant pressure (307.15 K): 450.5 ± 7 J/K/mol
- molar heat capacity at constant pressure (309.15 K): 451 ± 7 J/K/mol
- molar heat capacity at constant pressure (311.15 K): 451.5 ± 7 J/K/mol
- molar heat capacity at constant pressure (313.15 K): 452 ± 7 J/K/mol
- molar heat capacity at constant pressure (315.15 K): 452.5 ± 7 J/K/mol
- molar heat capacity at constant pressure (317.15 K): 453 ± 7 J/K/mol
- molar heat capacity at constant pressure (319.15 K): 453.6 ± 7 J/K/mol
- molar heat capacity at constant pressure (321.15 K): 454.2 ± 7 J/K/mol
- molar heat capacity at constant pressure (323.15 K): 454.8 ± 7 J/K/mol
- molar heat capacity at constant pressure (325.15 K): 455.4 ± 7.1 J/K/mol
- molar heat capacity at constant pressure (327.15 K): 456 ± 7.1 J/K/mol
- molar heat capacity at constant pressure (329.15 K): 456.6 ± 7.1 J/K/mol
- molar heat capacity at constant pressure (331.15 K): 457.3 ± 7.1 J/K/mol
- molar heat capacity at constant pressure (333.15 K): 458 ± 7.1 J/K/mol
- molar heat capacity at constant pressure (335.15 K): 458.7 ± 7.1 J/K/mol
- molar heat capacity at constant pressure (337.15 K): 459.4 ± 7.1 J/K/mol
- molar heat capacity at constant pressure (339.15 K): 460.1 ± 7.1 J/K/mol

SMILES: CCOCCO [2-ethoxyethan-1-ol]
- molar heat capacity at constant pressure (275.15 K): 203.3 ± 3.2 J/K/mol
- molar heat capacity at constant pressure (277.15 K): 204 ± 3.2 J/K/mol
- molar heat capacity at constant pressure (279.15 K): 204.6 ± 3.2 J/K/mol
- molar heat capacity at constant pressure (281.15 K): 205.3 ± 3.2 J/K/mol
- molar heat capacity at constant pressure (283.15 K): 205.9 ± 3.2 J/K/mol
- molar heat capacity at constant pressure (285.15 K): 206.6 ± 3.2 J/K/mol
- molar heat capacity at constant pressure (287.15 K): 207.3 ± 3.2 J/K/mol
- molar heat capacity at constant pressure (289.15 K): 208 ± 3.2 J/K/mol
- molar heat capacity at constant pressure (291.15 K): 208.6 ± 3.2 J/K/mol
- molar heat capacity at constant pressure (293.15 K): 209.3 ± 3.2 J/K/mol
- molar heat capacity at constant pressure (295.15 K): 210 ± 3.3 J/K/mol
- molar heat capacity at constant pressure (297.15 K): 210.7 ± 3.3 J/K/mol
- molar heat capacity at constant pressure (298.15 K): 211.1 ± 3.3 J/K/mol
- molar heat capacity at constant pressure (299.15 K): 211.4 ± 3.3 J/K/mol
- molar heat capacity at constant pressure (301.15 K): 212.1 ± 3.3 J/K/mol
- molar heat capacity at constant pressure (303.15 K): 212.8 ± 3.3 J/K/mol
- molar heat capacity at constant pressure (305.15 K): 213.6 ± 3.3 J/K/mol
- molar heat capacity at constant pressure (307.15 K): 214.3 ± 3.3 J/K/mol
- molar heat capacity at constant pressure (309.15 K): 215 ± 3.3 J/K/mol
- molar heat capacity at constant pressure (311.15 K): 215.7 ± 3.3 J/K/mol
- molar heat capacity at constant pressure (313.15 K): 216.5 ± 3.4 J/K/mol
- molar heat capacity at constant pressure (315.15 K): 217.2 ± 3.4 J/K/mol
- molar heat capacity at constant pressure (317.15 K): 218 ± 3.4 J/K/mol
- molar heat capacity at constant pressure (319.15 K): 218.7 ± 3.4 J/K/mol
- molar heat capacity at constant pressure (321.15 K): 219.5 ± 3.4 J/K/mol
- molar heat capacity at constant pressure (323.15 K): 220.2 ± 3.4 J/K/mol
- molar heat capacity at constant pressure (325.15 K): 221 ± 3.4 J/K/mol
- molar heat capacity at constant pressure (327.15 K): 221.8 ± 3.4 J/K/mol
- molar heat capacity at constant pressure (329.15 K): 222.6 ± 3.4 J/K/mol
- molar heat capacity at constant pressure (331.15 K): 223.3 ± 3.5 J/K/mol
- molar heat capacity at constant pressure (333.15 K): 224.1 ± 3.5 J/K/mol
- molar heat capacity at constant pressure (335.15 K): 224.9 ± 3.5 J/K/mol
- molar heat capacity at constant pressure (337.15 K): 225.7 ± 3.5 J/K/mol
- molar heat capacity at constant pressure (339.15 K): 226.5 ± 3.5 J/K/mol
